Data published in article PMC9695821, “Synthesis and Evaluation of NF-κB Inhibitory Activity of Mollugin Derivatives” (Molecules, 2022).
Marks after values point to notes of the source that are not given here.

Key:
[1] = test system: NF-κB transcriptional activity; assay: NF-κB luciferase reporter assay in HeLa cells; assay type: cell-based; conditions: for IC50: Homo sapiens, NF-κB luciferase reporter, 24 h treatment, hypoxic conditions, mean, n = 3
Method: A NF-κB-Luc plasmid for NF-κB luciferase reporter assay was obtained from Strategene (La Jolla, CA, USA). Transfections were performed as previously described. NF-κB-dependent luciferase activity was measured using the Dual-luciferase reporter assay system. Briefly, HeLa cells (1 × 10^5 cells/well) were seeded in a 96-well plate for 24 h. The cells were then transfected with plasmids for each well and then incubated for a transfection period of 24 h. […] Luciferase activity was determined in MicroLumat plus luminometer (EG&G Berthold, Bad Wildbad, Germany) by injecting 100 µL of assay buffer containing luciferin and measuring light emission for 10 s. Co-transfection with pRL-CMV (Promega, Madison, WI, USA), which expresses Renilla luciferase, was performed to enable normalization of data for transfection efficiency.

[2] = MTT cytotoxicity / cell viability assay; assay type: cell-based; conditions: human; MTT assay, HeLa cells, 24 h treatment, normoxic conditions; mean, n = 3
Method: (§1) HeLa cells were inoculated and cultured in 96-well plates. After the cells adhered to the wall, the prepared target compounds with different concentrations were added to all plates for 24 h and then cultured in 5 mg/mL MTT solution for 4 h. The culture solution in the holes was sucked out, and DMSO reagent was added. After the crystallization was fully dissolved, the absorbance at 570 nm was measured by Multiskan GO.

HeLa cells = assay: MTT cytotoxicity / cell viability assay; assay type: cell-based; conditions: for IC50 Cytotoxicity: MTT assay, 24 h treatment, normoxic conditions, mean, n = 3
Method: as §1

xylene-induced ear edema [3] = assay: Xylene-induced ear edema test, initial screening (i.p.); assay type: in vivo; conditions: mice; for inhibition in vivo at 100 mg/kg: Mus musculus, ip, 0.5 h, n = 6, read-out: Inhibition Rate; for Edema Mean ± SD: 100 mg/kg, n = 6
Method: In vivo inhibition test of xylene induced ear edema in mice was performed to evaluate its anti-inflammatory activity.
In the initial screening, mice (male) were randomly divided into experimental group, positive control drug ibuprofen and Mesalazine group, and blank group. All target compounds were dissolved in dimethyl sulfoxide, and corresponding drugs were intraperitoneally injected into experimental group, positive control group and blank group, respectively. Mice were treated with 100 mg/kg, 0.1 mL/20 g body weight, and control mice received only DMSO (0.1 mL/20 g body weight). After 30 min, 20 μL of xy-lene was evenly applied on both sides of the right ear of the mice. After 30 min of xy-lene was applied, the mice were sacrificed by cutting off their necks. Then the left and right ears of the mice were drilled with a hole punch with a diameter of 7 mm, respec-tively, to obtain two round ear pieces. The degree of swelling (right ear mass–left ear mass) was calculated for each sample, and the swelling inhibition rate of each drug was calculated using the following formula. The inhibition rate of swelling degree (%) = (mean ear swelling degree of mice in blank group […] mean ear swelling degree of mice in target compound group)/mean ear swelling degree of mice in blank group × 100%. The data were processed by GraphPadPrism 5 and expressed as mean data ± SEM. One-way ANOVA method was used for statistical analysis of relevant data. A value of p < 0.05 in the chart indicates significant and statistically significant data dif-ference.

xylene-induced ear edema [4] = assay: Xylene-induced ear edema test, deep screening (oral); assay type: in vivo; conditions: mice
Method: In the deep screening, mice were divided into target compound group, positive control group (ibuprofen), and blank group (8 male mice in each group). Target com-pound and ibuprofen were dissolved in sodium carboxymethyl cellulose aqueous solu-tion (sodium carboxymethyl cellulose to water, mass ratio 1:1000); the blank group was sodium carboxymethyl cellulose aqueous solution (sodium carboxymethyl cellu-lose to water, mass ratio 1:1000). The anti-inflammatory activities of each compound in the target compound group, positive control group, and blank group were measured at 1, 2, 3, 4, 6, 9, 12 and 24 h after taking the drug. The experimental operation and calculation method are the same as the initial screening part.

p65 = assay: Western blot of nuclear extracts, TNF-α-induced p65; assay type: cell-based

SMILES | IC50 [1] | melting point | IC50 at 24 h [2] | IC50 Cytotoxicity (HeLa cells) | inhibition in vivo at 100 mg/kg (xylene-induced ear edema [3]) | Edema Mean ± SD (xylene-induced ear edema [3]) | Inhibition (xylene-induced ear edema [4]; 100 mg/kg, time 1 h) | Inhibition (xylene-induced ear edema [4]; 100 mg/kg, time 2 h) | Inhibition (xylene-induced ear edema [4]; 100 mg/kg, time 3 h) | Inhibition (xylene-induced ear edema [4]; 100 mg/kg, time 4 h) | Inhibition (xylene-induced ear edema [4]; 100 mg/kg, time 9 h) | Inhibition (xylene-induced ear edema [4]; 100 mg/kg, time 12 h) | Inhibition (xylene-induced ear edema [4]; 100 mg/kg, time 24 h) | Inhibition (xylene-induced ear edema [4]; dose series, 25 mg/kg, 6 h) | Inhibition (xylene-induced ear edema [4]; dose series, 50 mg/kg, 6 h) | inhibition of NF-κB luciferase activity, dose dependence ([1]; Figure 2A) | cell viability (HeLa cells; 30 µM, 24 h, Figure 2B) | TNF-α-induced expression of p65 (p65; HeLa cells, 100 µM) | TNF-α-induced p65 phosphorylation (p65; HeLa cells, 10, 30, 100 µM for 12 h, then 10 ng/mL TNF-α 30 min, nuclear extracts)
COC(=O)c1c2c(c3ccccc3c1OCC(=O)Nc1ccc(F)cc1)OC(C)(C)C=C2 [Compound 4f, Methyl 6-(2-((4-fluorophenyl)amino)-2-oxoethoxy)-2,2-dimethyl-2H-benzo [h] chromene-5-carboxylate] | 18.5 µM | 132 to 134 °C | > 100 µM | no significant cell toxicity | 83.1% | 1.1167 ± 0.2544 mg | 27.53% *** | 37.12% *** | 46.46% *** | 58.08% *** | 43.94% *** | 35.35% *** | 26.01% *** | 46.46% ** | 53.08% *** |  |  |  | 
COC(=O)c1c2c(c3ccccc3c1OCC(=O)Nc1ccc(OC)cc1)OC(C)(C)C=C2 [Compound 4d, Methyl 6-(2-((4-methoxyphenyl)amino)-2-oxoethoxy)-2,2-dimethyl-2H-benzo [h] chromene-5-carboxylate] | 88.2 µM | 126 to 128 °C | > 100 µM | no significant cell toxicity | 61.9% | 2.5167 ± 0.6890 mg |  |  |  |  |  |  |  |  |  |  |  |  | 
COC(=O)c1c2c(c3ccccc3c1OCC(=O)Nc1cccc(C)c1)OC(C)(C)C=C2 [Compound 4h, Methyl 2,2-dimethyl-6-(2-oxo-2-(m-tolylamino)ethoxy)-2H-benzo [h] chromene-5-carboxylate] | > 100 µM | 122 to 124 °C | > 100 µM |  | 62.4% | 2.4833 ± 1.5464 mg |  |  |  |  |  |  |  |  |  |  |  |  | 
COC(=O)c1c2c(c3ccccc3c1OCC(=O)Nc1ccc(CC#N)cc1)OC(C)(C)C=C2 [Compound 4i, Methyl 6-(2-((4-(cyanomethyl)phenyl)amino)-2-oxoethoxy)-2,2-dimethyl-2H-benzo [h] chromene-5-carboxylate] | 22.9 µM | 115 to 117 °C | > 100 µM | no significant cell toxicity | 59.1% | 2.7000 ± 0.4619 mg |  |  |  |  |  |  |  |  |  |  |  |  | 
COC(=O)c1c2c(c3ccccc3c1OCC(=O)Nc1ccc(C)cc1)OC(C)(C)C=C2 [Compound 4e, Methyl 2,2-dimethyl-6-(2-oxo-2-(p-tolylamino)ethoxy)-2H-benzo [h] chromene-5-carboxylate] | 55.1 µM | 120 to 122 °C | > 100 µM | no significant cell toxicity | 41.4% | 3.8667 ± 1.2023 mg |  |  |  |  |  |  |  |  |  |  |  |  | 

Second part, led by results:

IC50 [1] | melting point | SMILES | IC50 at 24 h [2] | IC50 Cytotoxicity (HeLa cells) | inhibition in vivo at 100 mg/kg (xylene-induced ear edema [3]) | Edema Mean ± SD (xylene-induced ear edema [3]) | Inhibition (xylene-induced ear edema [4]; 100 mg/kg, time 1 h) | Inhibition (xylene-induced ear edema [4]; 100 mg/kg, time 2 h) | Inhibition (xylene-induced ear edema [4]; 100 mg/kg, time 3 h) | Inhibition (xylene-induced ear edema [4]; 100 mg/kg, time 4 h) | Inhibition (xylene-induced ear edema [4]; 100 mg/kg, time 9 h) | Inhibition (xylene-induced ear edema [4]; 100 mg/kg, time 12 h) | Inhibition (xylene-induced ear edema [4]; 100 mg/kg, time 24 h) | Inhibition (xylene-induced ear edema [4]; dose series, 25 mg/kg, 6 h) | Inhibition (xylene-induced ear edema [4]; dose series, 50 mg/kg, 6 h) | inhibition of NF-κB luciferase activity, dose dependence ([1]; Figure 2A) | cell viability (HeLa cells; 30 µM, 24 h, Figure 2B) | TNF-α-induced expression of p65 (p65; HeLa cells, 100 µM) | TNF-α-induced p65 phosphorylation (p65; HeLa cells, 10, 30, 100 µM for 12 h, then 10 ng/mL TNF-α 30 min, nuclear extracts)
3.81 µM | 135 to 137 °C | COC(=O)c1c2c(c3ccccc3c1OCC(=O)Nc1ccc3ncccc3c1)OC(C)(C)C=C2 [Compound 6d, Methyl 2,2-dimethyl-6-(2-oxo-2-(quinolin-6-ylamino)ethoxy)-2H-benzo [h] Chromene-5-carboxylate] | > 100 µM | did not show any significant cytotoxicity | 76.8% |  | 25.76% *** | 33.84% *** | 41.92% *** | 52.53% *** | 37.63% *** | 31.82% *** | 25.25% *** | 41.92% ** | 46.32% *** | dose-dependent inhibition | did not adversely affect the cell viability | inhibited TNF-α-induced expression of p65 | significantly inhibited TNF-α-induced p65 phosphorylation in a dose-dependent manner
41.9 µM | 123 to 125 °C | COC(=O)c1c2c(c3ccccc3c1OCC(=O)Nc1ccncc1C)OC(C)(C)C=C2 [Compound 6b, Methyl 2,2-dimethyl-6-(2-((3-methylpyridin-4-yl)amino)-2-oxoethoxy)-2H-benzo [h] chromene-5-carboxylate] | > 100 µM |  | 63.1% | 2.4333 ± 0.1795 mg |  |  |  |  |  |  |  |  |  |  |  |  | 
> 100 µM | 128 to 130 °C | COC(=O)c1c2c(c3ccccc3c1OCCNc1ccc(F)cc1)OC(C)(C)C=C2 [Compound 8c, Methyl6-(2-((4-fluorophenyl)amino)ethoxy)-2,2-dimethyl-2H-benzo [h] chromene-5-carboxylate] | > 100 µM |  | 63.9% | 2.3833 ± 0.7104 mg |  |  |  |  |  |  |  |  |  |  |  |  | 
